Organism: Rattus norvegicus
Test: DrugMatrix - Regimen: Daily Repeat
Type: toxicity, organism-based, Sprague-Dawley
Design: regimen Daily Repeat, gender Male, age 6-8 weeks
Details: in vivo, po, route oral GAVAGE, vehicle .5 % CMC; for ABSOLUTE BASOPHIL / ABSOLUTE EOSINOPHIL / ABSOLUTE LYMPHOCYTE / ABSOLUTE MONOCYTE / ABSOLUTE SEGMENTED NEUTROPHIL / BASOPHIL / EOSINOPHIL / ERYTHROCYTE COUNT / HEMATOCRIT / HEMOGLOBIN / LEUKOCYTE COUNT / LYMPHOCYTE / MEAN CORPUSCULAR HEMOGLOBIN / MEAN CORPUSCULAR HEMOGLOBIN CONCENTRATION / MEAN CORPUSCULAR VOLUME / MONOCYTE / NEUTROPHIL / NUCLEATED RED BLOOD CELLS / PLATELET COUNT: tissue Blood; for ALANINE AMINOTRANSFERASE / ALBUMIN / ALKALINE PHOSPHATASE / ASPARTATE AMINOTRANSFERASE / BLOOD UREA NITROGEN / CARBON DIOXIDE / CHLORIDE / CHOLESTEROL / CREATINE PHOSPHOKINASE / CREATININE / GLUCOSE / LACTATE DEHYDROGENASE / LIPASE / PHOSPHORUS / POTASSIUM / SODIUM / TOTAL BILIRUBIN / TOTAL PROTEIN / URIC ACID: tissue Plasma
[1] = 0 mg/kg, 72 h, dose level Control, time 3 day
[2] = 0 mg/kg, 120 h, dose level Control, time 5 day
[3] = 200 mg/kg, 72 h, dose level Low, time 3 day

In the case of `Cc1cnc(C(=O)NCCc2ccc(S(=O)(=O)NC(=O)NC3CCCCC3)cc2)cn1` [GLIPIZIDE], the “ABSOLUTE BASOPHIL” value [1] is reported as 0 CELLS/uL, the “ABSOLUTE EOSINOPHIL” value [1] is reported as 0 CELLS/uL and the “ABSOLUTE LYMPHOCYTE” value [1] is reported as 12191.17 CELLS/uL. For the same molecule, the “ABSOLUTE MONOCYTE” value [1] was 183.17 CELLS/uL, the “ABSOLUTE SEGMENTED NEUTROPHIL” value [1] was 1192.33 CELLS/uL and the BASOPHIL [1] was 0%. For the same molecule, the EOSINOPHIL [1] was 0%, the “ERYTHROCYTE COUNT” value [1] was 5.51 x10E6/uL and the HEMATOCRIT [1] was 35.45%. For the same molecule, the HEMOGLOBIN [1] was 13.82 G/DL, the “LEUKOCYTE COUNT” value [1] was 13.57 x10E3/uL and the LYMPHOCYTE [1] was 89.83%. The “MEAN CORPUSCULAR HEMOGLOBIN” value [1] was 25.1 pg, the “MEAN CORPUSCULAR HEMOGLOBIN CONCENTRATION” value [1] was 38.98 G/DL and the “MEAN CORPUSCULAR VOLUME” value [1] was 64.42 fL. For the same molecule, the MONOCYTE [1] was 1.33%, the NEUTROPHIL [1] was 8.83% and the “NUCLEATED RED BLOOD CELLS” value [1] was 0 /100WBC. The “PLATELET COUNT” value [1] was 1118.17 x10E3/uL, the “ALANINE AMINOTRANSFERASE” value [1] was 55 u/L and the ALBUMIN [1] was 4.15 G/DL. The “ALKALINE PHOSPHATASE” value [1] was 449.5 u/L, the “ASPARTATE AMINOTRANSFERASE” value [1] was 112.83 u/L and the “BLOOD UREA NITROGEN” value [1] was 17.33 mg/dL. The “CARBON DIOXIDE” value [1] was 29.5 mmol/L, the CHLORIDE [1] was 101 MEQ/L and the CHOLESTEROL [1] was 70 mg/dL. For the same molecule, the “CREATINE PHOSPHOKINASE” value [1] was 1325.83 u/L, the CREATININE [1] was 0.18 mg/dL and the GLUCOSE [1] was 171.5 mg/dL. The “LACTATE DEHYDROGENASE” value [1] was 386 u/L, the LIPASE [1] was 10 u/L and the PHOSPHORUS [1] was 11.57 mg/dL. The POTASSIUM [1] was 6.21 MEQ/L, the SODIUM [1] was 141.65 MEQ/L and the “TOTAL BILIRUBIN” value [1] was 0.15 mg/dL. The “TOTAL PROTEIN” value [1] was 5.75 G/DL, the “URIC ACID” value [1] was 1.28 mg/dL and the “ABSOLUTE BASOPHIL” value [2] was 0 CELLS/uL. The “ABSOLUTE EOSINOPHIL” value [2] was 138.17 CELLS/uL, the “ABSOLUTE LYMPHOCYTE” value [2] was 13283.17 CELLS/uL and the “ABSOLUTE MONOCYTE” value [2] was 303.83 CELLS/uL. The “ABSOLUTE SEGMENTED NEUTROPHIL” value [2] was 1308.17 CELLS/uL, the BASOPHIL [2] was 0% and the EOSINOPHIL [2] was 1%. For the same molecule, the “ERYTHROCYTE COUNT” value [2] was 5.32 x10E6/uL, the HEMATOCRIT [2] was 33.8% and the HEMOGLOBIN [2] was 13.63 G/DL. The “LEUKOCYTE COUNT” value [2] was 15.03 x10E3/uL, the LYMPHOCYTE [2] was 88.33% and the “MEAN CORPUSCULAR HEMOGLOBIN” value [2] was 25.68 pg. The “MEAN CORPUSCULAR HEMOGLOBIN CONCENTRATION” value [2] was 40.35 G/DL, the “MEAN CORPUSCULAR VOLUME” value [2] was 63.67 fL and the MONOCYTE [2] was 1.83%. For the same molecule, the NEUTROPHIL [2] was 8.83%, the “NUCLEATED RED BLOOD CELLS” value [2] was 0 /100WBC and the “PLATELET COUNT” value [2] was 1097.5 x10E3/uL. For the same molecule, the “ALANINE AMINOTRANSFERASE” value [2] was 54.5 u/L, the ALBUMIN [2] was 4.27 G/DL and the “ALKALINE PHOSPHATASE” value [2] was 337 u/L. For the same molecule, the “ASPARTATE AMINOTRANSFERASE” value [2] was 94.67 u/L, the “BLOOD UREA NITROGEN” value [2] was 17 mg/dL and the “CARBON DIOXIDE” value [2] was 28.33 mmol/L. The CHLORIDE [2] was 101.5 MEQ/L, the CHOLESTEROL [2] was 71.33 mg/dL and the “CREATINE PHOSPHOKINASE” value [2] was 628.17 u/L. For the same molecule, the CREATININE [2] was 0.19 mg/dL, the GLUCOSE [2] was 177.83 mg/dL and the “LACTATE DEHYDROGENASE” value [2] was 500.5 u/L. It also gave an LIPASE [2] of 9.5 u/L, a PHOSPHORUS [2] of 12.3 mg/dL and a POTASSIUM [2] of 5.63 MEQ/L. The SODIUM [2] was 143.03 MEQ/L, the “TOTAL BILIRUBIN” value [2] was 0.2 mg/dL and the “TOTAL PROTEIN” value [2] was 6.02 G/DL. The “URIC ACID” value [2] was 1.5 mg/dL, the “ABSOLUTE BASOPHIL” value [3] was 0 CELLS/uL and the “ABSOLUTE EOSINOPHIL” value [3] was 38 CELLS/uL. For the same molecule, the “ABSOLUTE LYMPHOCYTE” value [3] was 11413.33 CELLS/uL, the “ABSOLUTE MONOCYTE” value [3] was 0 CELLS/uL and the “ABSOLUTE SEGMENTED NEUTROPHIL” value [3] was 882 CELLS/uL. The BASOPHIL [3] was 0%, the EOSINOPHIL [3] was 0.33% and the “ERYTHROCYTE COUNT” value [3] was 5.65 x10E6/uL. For the same molecule, the HEMATOCRIT [3] was 34.83%, the HEMOGLOBIN [3] was 13.93 G/DL and the “LEUKOCYTE COUNT” value [3] was 12.33 x10E3/uL. The LYMPHOCYTE [3] was 92.67%, the “MEAN CORPUSCULAR HEMOGLOBIN” value [3] was 24.63 pg and the “MEAN CORPUSCULAR HEMOGLOBIN CONCENTRATION” value [3] was 40 G/DL. The “MEAN CORPUSCULAR VOLUME” value [3] was 61.63 fL, the MONOCYTE [3] was 0% and the NEUTROPHIL [3] was 7%. The “NUCLEATED RED BLOOD CELLS” value [3] was 0 /100WBC, the “PLATELET COUNT” value [3] was 1245 x10E3/uL and the “ALANINE AMINOTRANSFERASE” value [3] was 51.33 u/L. For the same molecule, the ALBUMIN [3] was 4.23 G/DL, the “ALKALINE PHOSPHATASE” value [3] was 334.33 u/L and the “ASPARTATE AMINOTRANSFERASE” value [3] was 84.33 u/L. The “BLOOD UREA NITROGEN” value [3] was 15.33 mg/dL, the “CARBON DIOXIDE” value [3] was 27.33 mmol/L and the CHLORIDE [3] was 103.33 MEQ/L. For the same molecule, the CHOLESTEROL [3] was 74.33 mg/dL, the “CREATINE PHOSPHOKINASE” value [3] was 335 u/L and the CREATININE [3] was 0.13 mg/dL. The GLUCOSE [3] was 133.67 mg/dL, the “LACTATE DEHYDROGENASE” value [3] was 97.33 u/L and the LIPASE [3] was 10.33 u/L. The PHOSPHORUS [3] was 11.7 mg/dL, the POTASSIUM [3] was 5.79 MEQ/L and the SODIUM [3] was 143.47 MEQ/L. For the same molecule, the “TOTAL BILIRUBIN” value [3] was 0.13 mg/dL, the “TOTAL PROTEIN” value [3] was 5.77 G/DL and the “URIC ACID” value [3] was 1.43 mg/dL.

From ChEMBL document CHEMBL3885881, “DrugMatrix”
